We go through one molecule from US7912535B2, “Method and system for assessing repolarization abnormalities” (University of Rochester, priority 2006, dated 2011).

The data set relates to IKr ion currents. Nature of the data set: First validation: ECG repolarization changes (QTc, ERDc, LRDc) on sotalol versus baseline. Format: in vivo. To be noted: median (standard deviation); for ERDc 50%, Δ on drug - baseline / LRDc 50%, Δ on drug - baseline: individual correction formula. An excerpt: FIG. 2 illustrates one embodiment of a such a method for assessing repolarization abnormalities. At least two repolarization signals are identified 30 from a set of ECG signals. The ECG signals may be obtained from a variety of ECG capture devices as discussed above. The ECG signals may be obtained in “real-time” from a subject, or the ECG signals may be obtained from a database (which should be understood to include memory devices) storing previously obtained ECG signals.
Once the at least two repolarization signals are identified 30, principal component analysis 32 can be done on the repolarization signals to extract eigenvectors ev1 and ev2. Principal component analysis (PCA) is a way of identifying patterns in data, and is especially useful in dealing with multi-dimensional data, such as multiple repolarization signals from multiple ECG leads. PCA analysis is a mathematical technique which those skilled in the art will be familiar with, and results in a matrix of eigenvectors. As a summary of the PCA analysis, first, the mean is subtracted from each of the data dimensions. This produces a data set whose mean is zero. Next, a covariance matrix is calculated for the data. If the data has n-dimensions, then the covariance matrix will be a square n-by-n matrix. Mathematical constructs called eigenvectors and eigenvalues may be calculated for a square matrix, and so next, a set of eigenvectors and eigenvalues are calculated for the covariance matrix. For the n-by-n covariance matrix, there will be n eigenvectors. The eigenvectors are orthogonal to each other, and each has a corresponding eigenvalue. The eigenvectors can be thought of as a representation of the multi-dimension data. The eigenvector with the highest eigenvalue is the principal component of the data set. The eigenvectors may be sorted from highest to lowest, and the eigenvectors with the two highest eigenvalues may be referred to as ev1 and ev2 respectively.
Once the PCA analysis 32 has been completed, a maximum vector MV may be determined 34 based on a transformed ECG signal in a preferential plane defined by ev1 and ev2. Mathematically, MV is detected at time t=TMV, where equation 1 is fulfilled: MV=max ? {right arrow over (VECG)}(t)−{right arrow over (VECG)}(TQ) ? , Equation 1)
Referring again to FIG. 2, once the maximum vector MV has been determined, a repolarization duration which is based on the maximum vector MV is determined 36. The repolarization duration may be determined 36 by taking an arbitrary threshold percentage of the magnitude of MV and projecting the threshold magnitude relative to an endpoint of MV to determine a beginning point and an ending point on the transformed ECG signal in the plane defined by ev1 and ev2. An example of this process can be seen graphically in FIG. 3. In the example of FIG. 3, the arbitrary threshold percentage of the magnitude of MV is 30%. This threshold magnitude of 30% MV (or 30% Vmax) is projected in a circle or arc 38 around the endpoint of MV, which is labeled Vmax. Where the projected threshold 38 crosses 40 the transformed ECG signal 42 (or T-loop) on a first side of the endpoint of MV, we can define a beginning point. Since the data points are samples in time, the beginning point may be designated as the closest true data point 44 to the crossing point 40. Alternatively, the beginning point may be an interpolated data point based on the two closest data points 44 and 46. Where the projected threshold 38 crosses 48 the transformed ECG signal 42 (or T-loop) on a second side of the endpoint of MV, we can define an ending point. Since the data points are samples in time, the ending point may be designated as the closest true data point 50 to the crossing point 48. Alternatively, the ending point may be an interpolated data point based on the two closest data points 50 and 52. […]

Marks after values point to notes of the source that are not given here.

Take `CC(C)NCC(O)c1ccc(NS(C)(=O)=O)cc1` (stereo not drawn) [sotalol]: the “QTc L II, Δ on drug - baseline” value is, setting by setting: (42′-48′ after dosing) 4.0(16) ms; (48′-54′ after dosing) 4.1(16) ms; (54′-1 h after dosing) 4.3(16)* ms; (1 h-1 h 6′ after dosing) 13(17)* ms. In addition, the “ERDc 50%, Δ on drug - baseline” value runs as follows: (42′-48′ after dosing) 5.1(14)* ms; (48′-54′ after dosing) 4.9(14)* ms; (54′-1 h after dosing) 4.4(12) ms; (1 h-1 h 6′ after dosing) 9.5(16)** ms. Besides, the “LRDc 50%, Δ on drug - baseline” value (42′-48′ after dosing) was 1.1(6.2)* ms; the “LRDc 50%, Δ on drug - baseline” value (48′-54′ after dosing) is 0.6(5.2)* ms; the “LRDc 50%, Δ on drug - baseline” value (54′-1 h after dosing) is given as 0.3(6.5) ms; the “LRDc 50%, Δ on drug - baseline” value (1 h-1 h 6′ after dosing) was 4.0(5.9)** ms.
